Values after ≈ are worked out from the molar mass of the structure shown.
Tests used:
Format in all cases: cell-based
[1] = test system: mouse thymoma strain EL4 cells; assay: Anti-proliferative activity on EL4 cells (MTT); settings: 3 days
Protocol: Experiment 2 Anti-Proliferative Activity on EL4 Cells
In 96-well microtiter plate 4×10^4/0.1 ml of mouse thymoma strain EL4 cells were added and 0.1 ml of the compound of the present invention was added to the mixture so that the concentration was in the range of 0-5,000 ng/ml. After the cultivation for 3 days, the IC50 was calculated by the MTT method as described in Experiment 1.

[2] = test system: C3H/HeN mouse splenocytes stimulated with Concanavalin A (Con A); assay: Suppressive effect on mitogenic activity of mouse splenocytes in vitro, Con A as mitogen (MTT); settings: Con A 5 μg/ml as mitogen, 3 days
Protocol: (§1) Experiment 1 Suppressive Effect on a Mitogenic Activity of Mouse Splenocytes In Vitro
(§2) In 96-well microtiter plate 5×10^5 C3H/HeN mouse splenocytes suspended in 0.1 ml of 10% fetal bovine serum-fortified RPMI 1640 medium containing 2 mM of sodium bicarbonate, 50 units/ml of penicillin, 50 μg/ml of streptomycin and 5×10^−5 M of 2-mercaptoethanol were added. Then, 5 μg/ml of Concanavalin A (Con A) or 10 μg/ml of lipopolysaccharide (LPS) as a mitogen and the compound of a pre-determined concentration of the present invention were added to each well so that a final volume of each well reached 0.2 ml. Each compound of the present invention was dissolved in dimethylsulfoxide (DMSO) and diluted with the above RPMI 1640 medium to adjust the final concentration of 100 ng/ml or less. The splenocytes in the 96-well microtiter plate were cultivated at 37° C. for 3 days in an incubator keeping the humidity 100%, carbon dioxide 5% and air 95%. Then, 25 μl of 6 mg/ml MTT [3-(4,5-dimethylthiazol-2-yl)-2,5-diphenyltetrazolium bromide] (Sigma) was added to the each well and cultivated at 37° C. for 4 hours under the same conditions. After the cultivation, 50 μl of 0.02 N hydrochloric acid in 20% sodium dodecyl sulfate (SDS) was added to formazan generated and left at 37° C. for 24 hours for dissolving formazan. An absorption intensity (OD) of formazan generated in proportion to the number of living cells was measured with an immunoreader (InterMed) equipped with a 570 nm filter (The Journal of Immunological Method, 65, 55-63, 1983). The 50% inhibitory concentration of a cell proliferation (IC 50) was calculated from a correlation between the concentration of the compound of the present invention and the absorption intensity.

[3] = test system: C3H/HeN mouse splenocytes stimulated with lipopolysaccharide (LPS); assay: Suppressive effect on mitogenic activity of mouse splenocytes in vitro, LPS as mitogen (MTT); settings: LPS 10 μg/ml as mitogen, 3 days
Protocol: as §1, §2

[4] = test system: IL-5 production of mouse T cell strain EL-4 (TPA); assay: Suppressive effect on the cytokine production of mouse T cell strain EL-4: IL-5; settings: EL-4, TPA 10 ng/ml, 24 hours, ELISA
Protocol: (§3) Experiment 8 Suppressive Effect on the Cytokine Production of a Mouse T Cell Strain EL-4 In 48-well plate were added 2×10^5 mouse T cell strain EL-4 which were suspended in 0.2 ml of 1% fetal bovine serum-added RPMI 1640 medium (2 mM of sodium bicarbonate, 50 units/ml of penicillin, 50 μg/ml of streptomycin and 5×10^−5 M of 2-mercaptoethanol were added) and the compound of the present invention of a predetermined concentration. TPA was added as a cell stimulater at a final concentration of 10 ng/ml to adjust a final volume of each well to 0.4 ml. Each compound of the present invention was dissolved in DMSO and diluted with the above RPMI 1640 medium, and then for added at a final concentration of 100 ng/ml or less. The cells in the 48-well plate were cultivated in an incubator keeping the humidity 100%, carbon dioxide 5% and air 95% at 37° C. for 24 hours to collect a supernatant of each well. The amount of IL-2, IL-4 and IL-5 released in the medium of each well were measured with the ELISA kit (Amersham K. K.) to be taken as an index of the cytokine production of the cells. TPA free group (-TPA) was used as a control.

[5] = test system: IL-4 production of mouse T cell strain EL-4 (TPA); assay: Suppressive effect on the cytokine production of mouse T cell strain EL-4: IL-4; settings: EL-4, TPA 10 ng/ml, 24 hours, ELISA
Protocol: as §3

[6] = test system: IL-2 production of mouse T cell strain EL-4 (TPA); assay: Suppressive effect on the cytokine production of mouse T cell strain EL-4: IL-2; settings: EL-4, TPA 10 ng/ml, 24 hours, ELISA
Protocol: as §3

Structure (SMILES) | EL-4 IC50 [1] [µg/mL] | ConA IC50 [2] [µg/mL] | LPS IC50 [3] [µg/mL] | other results
COCOc1c(OC)c(-c2ccc(OC)cc2)cc(OC)c1-c1ccc(OCc2ccccc2)c(O)c1 [Compound I-107] | 0.012 | 0.0006 | 0.0007 | –
C/C=C\COc1ccc(-c2c(OC)cc(-c3ccc(O)cc3)c(OC)c2O)cc1O [Compound I-50] | 0.0119 | 0.00383 | 0.0092 | –
CC/C=C\COc1ccc(-c2c(OC)cc(-c3ccc(O)cc3)c(OC)c2O)cc1O [Compound I-9] | <0.02 | <0.02 | <0.02 | –
CC#CCOc1ccc(-c2c(OC)cc(-c3ccc(O)cc3)c(OC)c2O)cc1O [Compound I-40] | 0.0374 | 0.0061 | 0.0165 | –
COc1cc(-c2ccc(O)cc2)c(OC)c(O)c1-c1ccc(OCC=C(C)Cl)c(O)c1 [Compound I-41] | 0.00489 | 0.00073 | 0.00174 | –
COc1cc(-c2ccc(O)cc2)c(OC)c(C)c1-c1ccc(OCC=C(C)C)c(O)c1 [Compound I-106] | 0.0027 | 0.0006 | 0.0004 | –
COCOc1c(OC)c(-c2ccc(OS(C)(=O)=O)cc2)cc(OC)c1-c1ccc(OCc2ccccc2)c(O)c1 [Compound I-163] | <0.02 | <0.02 | <0.02 | –
COc1cc(-c2ccc(N(C)C)cc2)c(OC)c(O)c1-c1ccc(OCC=C(C)C)c(O)c1 [Compound I-255] | <0.02 | <0.02 | <0.02 | –
C=C/C=C\COc1ccc(-c2c(OC)cc(-c3ccc(O)cc3)c(OC)c2O)cc1O [Compound I-175] | <0.02 | <0.02 | 0.0294 | –
COc1cc(-c2ccc(OCc3ccccc3)c(N)c2)c(OC)cc1-c1ccc(OS(C)(=O)=O)cc1 [Compound I-418] | >10 | 0.255 | 0.497 | –
COc1cc(-c2ccc(N(C)C)cc2)c(OC)c(O)c1-c1ccc(OCc2ccc(C)cc2)c(O)c1 [Compound I-256] | 0.31 | <0.02 | 0.0287 | –
COc1cc(-c2ccc(OCC=C(C)C)c(O)c2)c(OC)cc1-c1ccc(OCC=C(C)C)c(O)c1 [Compound I-66] | 0.00048 | 0.00022 | 0.00035 | –
COc1cc(-c2ccc3c(c2)OCO3)c(OC)c(O)c1-c1ccc(OCC=C(C)C)c(O)c1 [Compound I-62] | 0.0234 | 0.0292 | 0.025 | –
COc1ccccc1-c1cc(OC)c(-c2ccc(OCC=C(C)C)c(O)c2)c(O)c1OC [Compound I-276] | 0.2 | 0.0018 | 0.0031 | –
C=CCOc1ccc(-c2c(OC)cc(-c3ccc(O)cc3)c(OC)c2O)cc1O [Compound I-46] | 0.0675 | 0.0106 | 0.0239 | –
C/C=C/COc1ccc(-c2c(OC)cc(-c3ccc(O)cc3)c(OC)c2O)cc1O [Compound I-49] | 0.0317 | 0.00889 | 0.0162 | –

Structure (SMILES) | EL-4 IC50 [1] [µg/mL] | ConA IC50 [2] [µg/mL] | LPS IC50 [3] [µg/mL] | other results
COc1cc(-c2c(OC)cc(-c3ccc(O)cc3)c(OC)c2CO)ccc1OCC=C(C)C [Compound I-513] | 0.0618 | 0.00689 | 0.0111 | –
COc1cc(-c2ccc(OCc3ccccc3)c(O)c2)c(OC)cc1-c1ccc(OCc2ccccc2)c(O)c1 [Compound I-63] | 0.016 | 0.013 | 0.027 | –
COc1cc(-c2ccc(C(C)C)cc2)c(OC)c(OS(C)(=O)=O)c1-c1ccc(OCc2ccccc2)c(O)c1 [Compound I-361] | 0.124 | <0.02 | <0.02 | –
COc1cc(-c2c(OC)cc(-c3ccc(OS(C)(=O)=O)cc3)c(OC)c2OS(C)(=O)=O)ccc1OCC=C(C)C [Compound I-248] | 0.312 | <0.01 | <0.01 | –
COc1cc(-c2ccc(O)cc2)c(OC)c(O)c1-c1ccc(OC/C=C(/C)CO)c(O)c1 [Compound I-299] | 0.0136 | 0.00553 | 0.00785 | –
C#CC(O)COc1ccc(-c2c(OC)cc(-c3ccc(O)cc3)c(OC)c2O)cc1O (stereo not drawn) [Compound I-301] | 0.0158 | 0.00706 | 0.011 | IC50 IL-5 [4]: 0.12 µg/mL (≈ 0.284 µM); IC50 IL-4 [5]: <0.01 µg/mL; IC50 IL-2 [6]: 0.5 µg/mL (≈ 1.18 µM)
COc1cc(-c2ccc(O)cc2)c(OC)c(O)c1-c1ccc(OCc2ccco2)c(O)c1 [Compound I-211] | <0.02 | <0.02 | <0.02 | –
COc1cc(-c2ccc(O)cc2)c(OC)c(O)c1-c1ccc(OC/C=C/Br)c(O)c1 [Compound I-103] | 0.0046 | 0.0034 | 0.0037 | –
COc1cc(-c2ccc(OS(C)(=O)=O)cc2)c(OC)c(OS(C)(=O)=O)c1-c1ccc(OCCC=C(C)C)cc1 [Compound I-387] | – | – | – | IC50 IL-5 [4]: 0.04 µg/mL (≈ 0.0694 µM); IC50 IL-4 [5]: 0.075 µg/mL (≈ 0.13 µM); IC50 IL-2 [6]: >1 µg/mL
C/C=C\COc1ccc(-c2c(OC)cc(-c3ccc(O)cc3)c(OC)c2O)cc1O [Compound I-173] | <0.02 | <0.02 | <0.02 | –
COc1cc(-c2c(O)c(OC)c(-c3ccc(O)cc3)c(F)c2OC)ccc1OCC=C(C)C [Compound I-1107] | – | – | – | IC50 ([1]; Mus musculus, 72 h, read-out: EL-4 IC50): 0.0341 µg/mL (≈ 0.075 µM); IC50 ([2]; Mus musculus, Splenocyte, 72 h, read-out: ConA IC50): 0.0058 µg/mL (≈ 0.0128 µM); IC50 ([3]; Mus musculus, Splenocyte, 72 h): 0.0091 µg/mL (≈ 0.02 µM)
COc1cc(-c2ccc(OS(C)(=O)=O)cc2)c(OC)c(OS(C)(=O)=O)c1-c1ccc(OCc2ccc(-c3ccccc3)cc2)c(OS(C)(=O)=O)c1 [Compound I-403] | – | – | – | IC50 IL-5 [4]: >1 µg/mL; IC50 IL-4 [5]: 0.013 µg/mL (≈ 0.0172 µM); IC50 IL-2 [6]: >1 µg/mL
COc1cc(-c2ccc(O)cc2)c(OC)c(O)c1-c1ccc(OCc2cc(C)cc(C)c2)c(O)c1 [Compound I-209] | – | – | – | IC50 IL-5 [4]: 0.012 µg/mL (≈ 0.0254 µM); IC50 IL-4 [5]: 0.014 µg/mL (≈ 0.0296 µM); IC50 IL-2 [6]: >0.2 µg/mL
COc1cc(-c2ccc(O)cc2)c(OC)c(CO)c1-c1ccc(OCC=C(C)C)c(OS(C)(=O)=O)c1 [Compound I-12] | 0.0462 | 0.0013 | 0.0028 | –
COc1cc(-c2ccc(N(C)C)cc2)c(OC)c(OS(C)(=O)=O)c1-c1ccc(OCc2ccccc2)c(O)c1 [Compound I-360] | 0.0998 | <0.02 | <0.02 | –
